Here are results for four compounds from US4320148A, “2-Aminotetralin compounds, pharmaceutical compositions and method of producing central alpha1 agonist activity” (SmithKline Corporation, priority 1980, dated 1982).

Structures are written as SMILES.

The assay has as its system postjunctional alpha1 receptor (isolated rabbit ear artery segment). The experiment in a line: postjunctional alpha1 agonist activity (EC50), isolated segment of rabbit ear artery. Format: cell-based. The conditions noted are these: isolated rabbit ear artery segment superfused with oxygenated Krebs solution; maximum response of the artery determined with norepinephrine; read-out: EC50 (dose required to produce 50% of the maximum response). Here is the method: A quantitation of postjunctional alpha1 agonist activity (EC50) is determined for compounds showing activity in the above test. This is accomplished by employing an isolated segment of rabbit ear artery. The segment is mounted in a chamber superfused with oxygenated Krebs solution. The segment is suspended between two tungsten wires, one attached to the chamber, the other to a force-displacement transducer so that smooth muscle tension can be measured directly. Before administration of the test drug, norepinephrine is administered in increasing concentration (10^-8 M to 3×10^-6 M) to determine maximum response of the artery. The dose required to produce 50% of the maximum response is the EC50.
For the compound `COc1ccc(OC)c2c1CCC(N)C2` (stereo not shown) [SK&F 87,696], the concentration for a half-maximal effect (EC50) (as a rule, the concentration needed to bring the measured effect to its halfway point) was 110 nM. With `COc1ccc(OC)c2c1CCC(N(C)C)C2` (stereo not shown) [SK&F 88,444] the figure was 100 nM. Turning to `COc1ccc(SC)c2c1CC(N)CC2` (stereo not shown) [SK&F 89,748, 1,2,3,4-tetrahydro-8-methoxy-5-(methylthio)-2-naphthalenamine], the EC50 came to 9.3 nM. As to `COc1ccc(SC)c2c1CC(N(C)C)CC2` (stereo not shown) [SK&F 89,900, 1,2,3,4-tetrahydro-8-methoxy-N,N-dimethyl-5-(methylthio)-2-naphthalenamine], the EC50 turned out to be 13 nM.
